Some test systems named below: SR; NCI-H23; OVCAR-5; CCRF-CEM; OVCAR-8; UO-31; M14; MDA-N; U-251; SN12C; IGROV-1; T47D; MCF7; RPMI-8226; OVCAR-4; SF-295; 786-0; HCT-116; UACC-257; NCI-H226.
What all share (assay): growth of human tumour cells (NCI), 48 h

Structures are written as SMILES.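 1) Cells in 96-well plates. 2) Compound, 48 h, 5 concentrations. 3) Linear interpolation between surrounding doses. 4) Unreached endpoint = highest concentration. At the GI50, growth is halved.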 The source made the active and inactive calls. Rule as the data show it: active = GI50 up to about 1.1 µM and inactive = higher.

For the molecule `CCOC(=O)c1cc2cc(Cc3ccc4[nH]c(C(=O)OCC)cc4c3)ccc2[nH]1`, the GI50 in the experiment with SR is 41.3 µM (inactive); in the experiment with NCI-H23, 14.7 µM (inactive); in the experiment with OVCAR-5, > 100 µM (inactive); in the experiment with CCRF-CEM, 57.5 µM (inactive); in the experiment with OVCAR-8, 5.94 µM (inactive); in the experiment on UO-31, 59 µM (inactive). Besides, the GI50 in the experiment with M14 was > 100 µM (inactive); with MDA-N, 84.1 µM (inactive); in the experiment with U-251, 11.2 µM (inactive); in the experiment on SN12C, 23.7 µM (inactive); in the experiment on IGROV-1 it was 15.4 µM (inactive); in the experiment on T47D, 32.4 µM (inactive). Moreover, the GI50 in the experiment with MCF7 was 52.4 µM (inactive); with RPMI-8226, 28.6 µM (inactive); with OVCAR-4 it was 6.7 µM (inactive); in the experiment on SF-295, 17.5 µM (inactive); with 786-0, 2.86 µM (inactive); in the experiment on HCT-116, 38.5 µM (inactive). Moreover, the GI50 in the experiment with UACC-257 was 43.6 µM (inactive); with NCI-H226, 18.6 µM (inactive).
In the case of `ClCCCSSCCCCl`, the GI50 was 8.36 µM (inactive) in the experiment with SR; 38.3 µM (inactive) with NCI-H23; > 91.6 µM (inactive) with OVCAR-5; 5.08 µM (inactive) in the experiment on CCRF-CEM; 23.6 µM (inactive) in the experiment with OVCAR-8; 30.7 µM (inactive) in the experiment with UO-31. The GI50 with M14 was 38.4 µM (inactive); with MDA-N, 19.9 µM (inactive); in the experiment with U-251, 42 µM (inactive); in the experiment with SN12C, 29.4 µM (inactive); in the experiment on IGROV-1 it was 33 µM (inactive); in the experiment on T47D it was > 100 µM (inactive). For the same molecule, the GI50 was 30.3 µM (inactive) in the experiment with MCF7; 31 µM (inactive) with RPMI-8226; 42.7 µM (inactive) in the experiment with OVCAR-4; 37.5 µM (inactive) with SF-295; 30.2 µM (inactive) in the experiment with 786-0; 25.7 µM (inactive) in the experiment with HCT-116. The GI50 in the experiment with UACC-257 was 36.8 µM (inactive); with NCI-H226 it was > 79.4 µM (inactive).
`CN(/N=C/c1ccc(C(=O)O)cc1)C1=NCCCCN1`: the GI50 in the experiment on SR, in the experiment on NCI-H23, with OVCAR-5, in the experiment on CCRF-CEM, with OVCAR-8 and in the experiment on UO-31 was > 100 µM (inactive) each time. Also, the GI50 in the experiment on M14, with MDA-N, in the experiment with U-251, in the experiment on SN12C, in the experiment on IGROV-1 and with T47D was > 100 µM (inactive) in each case. In addition, the GI50 with MCF7, with RPMI-8226, in the experiment on OVCAR-4, in the experiment with SF-295, in the experiment on 786-0 and in the experiment with HCT-116 was > 100 µM (inactive) throughout. Besides, the GI50 with UACC-257 and with NCI-H226 was > 100 µM (inactive) throughout.
Turning to `COc1cc(C(=O)NC2CCc3cc(OC)c(OC)c(OC)c3-c3ccc(OC)c(=O)cc32)cc(OC)c1OC` (stereo not given), the GI50 was 0.0249 µM (active) in the experiment with SR; 0.0809 µM (active) in the experiment with NCI-H23; 2.75 µM (inactive) in the experiment on OVCAR-5; 0.0339 µM (active) in the experiment on CCRF-CEM; 0.201 µM (active) in the experiment with OVCAR-8; 10.9 µM (inactive) with UO-31. Also, the GI50 in the experiment with M14 was 0.202 µM (active); with MDA-N, 0.0202 µM (active); in the experiment on U-251 it was 0.0555 µM (active); with SN12C it was 0.199 µM (active); with IGROV-1 it was 0.0891 µM (active); in the experiment on T47D, 18.8 µM (inactive). Also, the GI50 with MCF7 is < 0.0176 µM (active); in the experiment on RPMI-8226, 0.0279 µM (active); in the experiment on OVCAR-4 it was 15.8 µM (inactive); with SF-295, 0.153 µM (active); in the experiment with 786-0 it was 0.288 µM (active); in the experiment on HCT-116, 0.043 µM (active). The GI50 is 0.0938 µM (active) in the experiment on UACC-257 and 0.444 µM (active) in the experiment on NCI-H226.
Turning to `CCOC(=O)c1sc2c(c1OC(=O)c1cccs1)c(=O)n(-c1ccccc1)c(=S)n2-c1ccccc1`, the GI50 in the experiment with SR is 0.0151 µM (active); in the experiment with NCI-H23, 15.8 µM (inactive); in the experiment on OVCAR-5, 22.6 µM (inactive); in the experiment on CCRF-CEM, 5.15 µM (inactive); in the experiment on OVCAR-8 it was 18.2 µM (inactive); in the experiment with UO-31 it was 0.175 µM (active). The GI50 is 12.4 µM (inactive) in the experiment with M14; 30.5 µM (inactive) in the experiment on MDA-N; 12.2 µM (inactive) with U-251; 18.3 µM (inactive) with SN12C; 12.2 µM (inactive) in the experiment with IGROV-1; 23.5 µM (inactive) in the experiment with T47D. Further, the GI50 in the experiment on MCF7 was 14.9 µM (inactive); in the experiment on RPMI-8226, 7.55 µM (inactive); in the experiment with OVCAR-4, 11.7 µM (inactive); with SF-295, 53.2 µM (inactive); with 786-0, 10.6 µM (inactive); in the experiment on HCT-116, 5.3 µM (inactive). For the same molecule, the GI50 in the experiment with UACC-257 was 27.4 µM (inactive); in the experiment with NCI-H226 it was 20.5 µM (inactive).
Regarding `Cc1ccc2c(O)cc(-c3ccc(Cl)s3)nc2n1`, the GI50 in the experiment with SR was 0.15 µM (active); with NCI-H23, 0.889 µM (active); with OVCAR-5, 2.75 µM (inactive); in the experiment with CCRF-CEM, 0.471 µM (active); with OVCAR-8, 1.44 µM (inactive); with UO-31 it was 0.245 µM (active). In addition, the GI50 with M14 is 0.516 µM (active); with MDA-N, 0.136 µM (active); in the experiment on U-251, 0.855 µM (active); in the experiment with SN12C, 1.55 µM (inactive); with IGROV-1, 0.564 µM (active); in the experiment on T47D, 1.04 µM (active). Besides, the GI50 with MCF7 is 0.422 µM (active); in the experiment with RPMI-8226 it was 0.308 µM (active); in the experiment on OVCAR-4, 16.3 µM (inactive); in the experiment on SF-295, 0.697 µM (active); in the experiment with 786-0, 1.21 µM (inactive); in the experiment on HCT-116, 0.552 µM (active). Besides, the GI50 in the experiment on UACC-257 was 5.68 µM (inactive); with NCI-H226 it was 0.916 µM (active).
For the molecule `COc1ccc(/C=C(/C)[N+](=O)[O-])cc1`, the GI50 in the experiment with SR is 0.419 µM (active); in the experiment on NCI-H23, 2.03 µM (inactive); in the experiment on OVCAR-5 it was 3.19 µM (inactive); in the experiment on CCRF-CEM, 0.565 µM (active); in the experiment on OVCAR-8, 2.22 µM (inactive); with UO-31, 1.67 µM (inactive). For the same molecule, the GI50 in the experiment on M14 was 3.18 µM (inactive); in the experiment on MDA-N it was 2.05 µM (inactive); in the experiment on U-251, 1.62 µM (inactive); with SN12C, 2.1 µM (inactive); in the experiment with IGROV-1 it was 2.13 µM (inactive); in the experiment with T47D, 3.72 µM (inactive). Further, the GI50 is 1.22 µM (inactive) in the experiment with MCF7; 0.394 µM (active) in the experiment with RPMI-8226; 3.09 µM (inactive) in the experiment with OVCAR-4; 6.84 µM (inactive) in the experiment on SF-295; 1.26 µM (inactive) in the experiment on 786-0; 1.75 µM (inactive) with HCT-116. The GI50 with UACC-257 is 1.5 µM (inactive); with NCI-H226, 21.1 µM (inactive).
In the case of `N#Cc1c(-c2cccc(Br)c2)cc(-c2ccc(Cl)cc2)nc1N`, the GI50 in the experiment with SR was 19.1 µM (inactive); in the experiment on NCI-H23, 25 µM (inactive); in the experiment on OVCAR-5, 25.5 µM (inactive); in the experiment with CCRF-CEM, 27.2 µM (inactive); in the experiment with OVCAR-8, 32 µM (inactive); in the experiment with UO-31, 19 µM (inactive). The GI50 was 20.7 µM (inactive) in the experiment with M14; 20.5 µM (inactive) in the experiment on MDA-N; 16.4 µM (inactive) with U-251; 19.1 µM (inactive) with SN12C; 14 µM (inactive) in the experiment on IGROV-1; 29 µM (inactive) in the experiment on T47D. The GI50 with MCF7 is 26.2 µM (inactive); in the experiment on RPMI-8226, 17 µM (inactive); in the experiment on OVCAR-4 it was 0.514 µM (active); in the experiment on SF-295 it was 16.6 µM (inactive); with 786-0 it was 20.3 µM (inactive); with HCT-116 it was 16.1 µM (inactive). The GI50 was 17.3 µM (inactive) in the experiment on UACC-257 and 17.5 µM (inactive) with NCI-H226.
In the case of `COC(=O)c1sc2ncc3c(c2c1N)CCCCCC3`, the GI50 in the experiment with SR, in the experiment on NCI-H23, in the experiment on OVCAR-5, with CCRF-CEM, in the experiment with OVCAR-8 and in the experiment on UO-31 was > 100 µM (inactive) each time. Besides, the GI50 in the experiment on M14, in the experiment on MDA-N, in the experiment with U-251, with SN12C, in the experiment with IGROV-1 and with T47D was > 100 µM (inactive) throughout. The GI50 in the experiment on MCF7, in the experiment with RPMI-8226, in the experiment with OVCAR-4, with SF-295, with 786-0 and in the experiment with HCT-116 was > 100 µM (inactive) each time. The GI50 with UACC-257 and with NCI-H226 was > 100 µM (inactive) throughout.
Turning to `CN(C)CCCN1CCC2(CCC(C(C)(C)C)CC2)CC1`, the GI50 in the experiment with SR is 1.42 µM (inactive); with NCI-H23, 7.48 µM (inactive); with OVCAR-5 it was 3.08 µM (inactive); in the experiment with CCRF-CEM, 1.58 µM (inactive); in the experiment with OVCAR-8, 3.8 µM (inactive); in the experiment on UO-31, 1.56 µM (inactive). Moreover, the GI50 with M14 is 1.85 µM (inactive); in the experiment on MDA-N, 0.912 µM (active); in the experiment on U-251, 1.76 µM (inactive); with SN12C, 7.35 µM (inactive); in the experiment with IGROV-1 it was 4.01 µM (inactive); with T47D, 1.88 µM (inactive). The GI50 is 1.65 µM (inactive) with MCF7; 1.25 µM (inactive) in the experiment on RPMI-8226; 6.31 µM (inactive) in the experiment on OVCAR-4; 2.03 µM (inactive) with SF-295; 1.54 µM (inactive) with 786-0; 1.56 µM (inactive) in the experiment with HCT-116. Besides, the GI50 in the experiment with UACC-257 was 1.41 µM (inactive); with NCI-H226 it was 6.82 µM (inactive).

The values above are taken from ChEMBL document CHEMBL1201862, “PubChem BioAssay data set” (2004).
